In PubChem BioAssay AID1963846 (Molecular Pharmacology Branch, DTP, NCI, 2024):

System: 454973-116-R2-J3-PDC complex spheroid viability
Assay: Anticancer human tumor 454973-116-R2-J3-PDC patient-derived pancreatic carcinoma cell line growth inhibition [POLQ]
Conditions: for IC50: curve of first compound; for viability, T/C: stronger effect = lower value
Procedure, shortened: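 Growth inhibition in 3D: complex spheroids (tumor PDC, HUVEC, MSC) treated with POLQ inhibitor combinations; where Cmax unknown, highest tested concentration 10 microM, except SN-38 at 1 microM.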

[1] = second compound 0.0316 µM, first compound 0.0316 µM
[2] = second compound 0.0316 µM, first compound 0.1 µM
[3] = second compound 0.0316 µM, first compound 0.316 µM
[4] = second compound 0.0316 µM, first compound 1 µM
[5] = second compound 0.0316 µM, first compound 3.16 µM
[6] = second compound 0.0316 µM, first compound 10 µM
[7] = second compound 0.1 µM, first compound 0.0316 µM
[8] = second compound 0.1 µM, first compound 0.1 µM
[9] = second compound 0.1 µM, first compound 0.316 µM
[10] = second compound 0.1 µM, first compound 1 µM
[11] = second compound 0.1 µM, first compound 3.16 µM
[12] = second compound 0.1 µM, first compound 10 µM
[13] = second compound 0.316 µM, first compound 0.0316 µM
[14] = second compound 0.316 µM, first compound 0.1 µM
[15] = second compound 0.316 µM, first compound 0.316 µM
[16] = second compound 0.316 µM, first compound 1 µM
[17] = second compound 0.316 µM, first compound 3.16 µM
[18] = second compound 0.316 µM, first compound 10 µM
[19] = second compound 1 µM, first compound 0.0316 µM
[20] = second compound 1 µM, first compound 0.1 µM
[21] = second compound 1 µM, first compound 0.316 µM
[22] = second compound 1 µM, first compound 1 µM
[23] = second compound 1 µM, first compound 3.16 µM
[24] = second compound 1 µM, first compound 10 µM
[25] = second compound 3.16 µM, first compound 0.0316 µM
[26] = second compound 3.16 µM, first compound 0.1 µM
[27] = second compound 3.16 µM, first compound 0.316 µM
[28] = second compound 3.16 µM, first compound 1 µM
[29] = second compound 3.16 µM, first compound 3.16 µM
[30] = second compound 3.16 µM, first compound 10 µM
[31] = second compound 10 µM, first compound 0.0316 µM
[32] = second compound 10 µM, first compound 0.1 µM
[33] = second compound 10 µM, first compound 0.316 µM
[34] = second compound 10 µM, first compound 1 µM
[35] = second compound 10 µM, first compound 3.16 µM
[36] = second compound 10 µM, first compound 10 µM
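Also: spheroids exposed to drugs for seven days before measurement.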
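For viability, T/C in this document: percent viability relative to DMSO vehicle control wells taken as 100%.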

Compound: O=C(Nc1ccc(O)c(NS(=O)(=O)c2ccc(F)cc2)c1)c1ccc(-c2ccccc2)cc1 + Nc1ccc(C#CCN(C(=O)Cc2ncc(C(F)(F)F)cc2C(F)(F)F)c2ccc(F)cc2)nn1
- IC50 (second compound 0.0316 µM): > 10 µM
- IC50 (second compound 0.1 µM): > 10 µM
- IC50 (second compound 0.316 µM): > 10 µM
- IC50 (second compound 1 µM): > 10 µM
- IC50 (second compound 3.16 µM): > 10 µM
- IC50 (second compound 10 µM): > 10 µM
- viability, T/C [1]: 109%
- viability, T/C [2]: 107%
- viability, T/C [3]: 108%
- viability, T/C [4]: 114%
- viability, T/C [5]: 108%
- viability, T/C [6]: 86.5%
- viability, T/C [7]: 101%
- viability, T/C [8]: 107%
- viability, T/C [9]: 110%
- viability, T/C [10]: 103%
- viability, T/C [11]: 103%
- viability, T/C [12]: 89.9%
- viability, T/C [13]: 105%
- viability, T/C [14]: 104%
- viability, T/C [15]: 109%
- viability, T/C [16]: 107%
- viability, T/C [17]: 110%
- viability, T/C [18]: 89.2%
- viability, T/C [19]: 110%
- viability, T/C [20]: 108%
- viability, T/C [21]: 111%
- viability, T/C [22]: 112%
- viability, T/C [23]: 109%
- viability, T/C [24]: 80.9%
- viability, T/C [25]: 107%
- viability, T/C [26]: 106%
- viability, T/C [27]: 106%
- viability, T/C [28]: 120%
- viability, T/C [29]: 123%
- viability, T/C [30]: 86.8%
- viability, T/C [31]: 123%
- viability, T/C [32]: 112%
- viability, T/C [33]: 112%
- viability, T/C [34]: 120%
- viability, T/C [35]: 109%
- viability, T/C [36]: 85.5%

Compound: CC1COCCN1c1cc(C2(S(C)(=N)=O)CC2)nc(-c2ccnc3[nH]ccc23)n1 (stereo unspecified) + Nc1ccc(C#CCN(C(=O)Cc2ncc(C(F)(F)F)cc2C(F)(F)F)c2ccc(F)cc2)nn1
- IC50 (second compound 0.0316 µM): 4.99 µM
- IC50 (second compound 0.1 µM): 5.25 µM
- IC50 (second compound 0.316 µM): 4.65 µM
- IC50 (second compound 1 µM): 4.27 µM
- IC50 (second compound 3.16 µM): 4.31 µM
- IC50 (second compound 10 µM): 3.67 µM
- viability, T/C [1]: 115%
- viability, T/C [2]: 104%
- viability, T/C [3]: 112%
- viability, T/C [4]: 100%
- viability, T/C [5]: 68%
- viability, T/C [6]: 22.5%
- viability, T/C [7]: 99.5%
- viability, T/C [8]: 109%
- viability, T/C [9]: 104%
- viability, T/C [10]: 97.5%
- viability, T/C [11]: 70.3%
- viability, T/C [12]: 24.3%
- viability, T/C [13]: 109%
- viability, T/C [14]: 122%
- viability, T/C [15]: 104%
- viability, T/C [16]: 95.2%
- viability, T/C [17]: 64.8%
- viability, T/C [18]: 20.9%
- viability, T/C [19]: 110%
- viability, T/C [20]: 111%
- viability, T/C [21]: 109%
- viability, T/C [22]: 109%
- viability, T/C [23]: 61.6%
- viability, T/C [24]: 17.3%
- viability, T/C [25]: 116%
- viability, T/C [26]: 106%
- viability, T/C [27]: 108%
- viability, T/C [28]: 105%
- viability, T/C [29]: 59.9%
- viability, T/C [30]: 23.1%
- viability, T/C [31]: 122%
- viability, T/C [32]: 114%
- viability, T/C [33]: 113%
- viability, T/C [34]: 111%
- viability, T/C [35]: 55%
- viability, T/C [36]: 15.5%

Compound: CC1COCCN1c1cc(C2(S(C)(=N)=O)CC2)nc(-c2ccnc3[nH]ccc23)n1 (stereo unspecified) + COC1C(OC(N)=O)C(O)C(Oc2ccc3c(O)c(NC(=O)c4ccc(O)c(CC=C(C)C)c4)c(=O)oc3c2C)OC1(C)C
- IC50 (second compound 0.0316 µM): 5.99 µM
- IC50 (second compound 0.1 µM): 6.04 µM
- IC50 (second compound 0.316 µM): 7.3 µM
- IC50 (second compound 1 µM): 6.19 µM
- IC50 (second compound 3.16 µM): 6.15 µM
- IC50 (second compound 10 µM): 6.05 µM
- viability, T/C [1]: 102%
- viability, T/C [2]: 104%
- viability, T/C [3]: 105%
- viability, T/C [4]: 102%
- viability, T/C [5]: 77.1%
- viability, T/C [6]: 28.1%
- viability, T/C [7]: 107%
- viability, T/C [8]: 114%
- viability, T/C [9]: 101%
- viability, T/C [10]: 101%
- viability, T/C [11]: 71.8%
- viability, T/C [12]: 32.8%
- viability, T/C [13]: 103%
- viability, T/C [14]: 110%
- viability, T/C [15]: 116%
- viability, T/C [16]: 105%
- viability, T/C [17]: 81.1%
- viability, T/C [18]: 38.3%
- viability, T/C [19]: 127%
- viability, T/C [20]: 104%
- viability, T/C [21]: 109%
- viability, T/C [22]: 109%
- viability, T/C [23]: 68.2%
- viability, T/C [24]: 37%
- viability, T/C [25]: 118%
- viability, T/C [26]: 99.9%
- viability, T/C [27]: 101%
- viability, T/C [28]: 97.2%
- viability, T/C [29]: 75.8%
- viability, T/C [30]: 30.9%
- viability, T/C [31]: 114%
- viability, T/C [32]: 97%
- viability, T/C [33]: 104%
- viability, T/C [34]: 93.9%
- viability, T/C [35]: 74%
- viability, T/C [36]: 31.2%
